Data published in patent US9150566B2, “2-(1,2,3-triazol-2-yl)benzamide and 3-(1,2,3-triazol-2-YL)picolinamide derivatives as orexin receptor antagonists” (ACTELION PHARMACEUTICALS LTD., priority 2011, dated 2015).

What was measured:
rodents = conditions: cited from earlier work
fasted hungry rats = fasted hungry rats exposed to food odors; cited from earlier work
rats [1] = conditions: rats treated with the compound; cited from earlier work
rat [2] = conditions: cited from earlier work
mouse = mouse model of depression, administered chronically; cited from earlier work
rats [3] = conditions: cited from earlier work
rat [4] = conditions: rat fear-potentiated startle paradigm; cited from earlier work
rat [5] = conditions: rat model; cited from earlier work
humans = conditions: cited from earlier work
[6] = test system: amyloid precursor protein transgenic mice; conditions: after acute sleep restriction, APP transgenic mice; cited from earlier work
[7] = Measurement of brain and systemic concentration after oral administration; format: in vivo; conditions: rat, brain, male wistar rats, oral 100 mg/kg, read-out: brain concentration [B]; for concentration at 3 h: formulated in 100% PEG400, sampled at 3 h
Experimental: Measurement of Brain and Systemic Concentration after Oral Administration:
In order to assess brain penetration, the concentration of the compound is measured in plasma ([P]), and brain ([B]), sampled 1 h or 3 h (or at different time points) following oral administration (100 mg/kg) to male wistar rats (n=3). The compounds are formulated either in 100% PEG 400 or 10% PEG400/90% MC0.5%. Samples are collected in the same animal at the same time point (+/−5 min). Blood is sampled from the vena cava caudalis into containers with EDTA as anticoagulant and centrifuged to yield plasma. Brain is sampled after cardiac perfusion of 10 mL NaCl 0.9% and homogenized into one volume of cold phosphate buffer (pH 7.4). All samples are extracted with MeOH and analyzed by LC-MS/MS. Concentrations are determined with the help of calibration curves. Inter-individual variations between the three rats were limited. Particular compounds of the present invention tested as described above gave brain concentrations ([B]) as shown in Table 16 below; wherein the compounds of Examples 11-37 and 94 were formulated in 100% PEG400 and sampled at 3 h. All other examples below were formulated in 10% PEG400/90% MC0.5% and sampled at 1 h.

human orexin-1 receptor = human orexin-1 receptor (Homo sapiens (Human), UniProt O43613); experiment: In vitro intracellular calcium measurements (FLIPR), antagonistic activity on orexin-1 receptor; format: cell-based; conditions: CHO cells expressing human orexin-1 receptor; FLIPR; 3 nM orexin-A agonist; 120 min antagonist incubation; geometric mean if determined several times; read-out: IC50 OX1
human orexin-1 receptor, sequence (O43613 whole entry): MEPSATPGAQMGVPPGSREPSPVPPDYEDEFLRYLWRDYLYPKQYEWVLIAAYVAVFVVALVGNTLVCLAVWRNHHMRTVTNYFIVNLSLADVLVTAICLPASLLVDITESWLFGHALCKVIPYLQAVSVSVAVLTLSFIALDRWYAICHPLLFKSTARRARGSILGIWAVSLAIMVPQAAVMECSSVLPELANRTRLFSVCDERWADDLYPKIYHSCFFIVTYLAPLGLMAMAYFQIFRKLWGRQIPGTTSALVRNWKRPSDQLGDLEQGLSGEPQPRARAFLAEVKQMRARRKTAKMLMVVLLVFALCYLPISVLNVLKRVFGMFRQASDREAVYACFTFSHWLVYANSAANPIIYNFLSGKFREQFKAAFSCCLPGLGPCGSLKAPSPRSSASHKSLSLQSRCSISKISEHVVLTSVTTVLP
Summary of the method: (§1)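 Recombinant CHO lines bearing human OX1 or OX2 receptors received test antagonist 120 min before agonist addition.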

CYP3A4 = CYP3A4 (Homo sapiens (Human), UniProt P08684); experiment: CYP3A4 inhibition assay (human liver microsomes, testosterone 6β-hydroxylation); conditions: read-out: CYP3A4 IC50, 40 μM testosterone
CYP3A4, sequence (P08684 whole entry): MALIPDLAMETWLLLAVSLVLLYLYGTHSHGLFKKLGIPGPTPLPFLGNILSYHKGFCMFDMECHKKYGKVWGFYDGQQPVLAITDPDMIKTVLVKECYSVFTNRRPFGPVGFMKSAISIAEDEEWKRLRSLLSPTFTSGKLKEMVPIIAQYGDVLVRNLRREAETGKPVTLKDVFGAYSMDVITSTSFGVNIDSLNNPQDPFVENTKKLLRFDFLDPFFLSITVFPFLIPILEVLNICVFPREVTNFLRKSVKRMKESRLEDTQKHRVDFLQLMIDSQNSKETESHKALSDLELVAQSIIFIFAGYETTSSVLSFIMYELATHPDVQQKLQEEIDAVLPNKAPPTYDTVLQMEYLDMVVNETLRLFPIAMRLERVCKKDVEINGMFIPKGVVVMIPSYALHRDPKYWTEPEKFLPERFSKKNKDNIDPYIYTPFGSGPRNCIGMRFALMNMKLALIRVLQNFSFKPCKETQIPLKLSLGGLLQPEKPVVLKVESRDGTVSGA
Experimental: The CYP3A4 inhibition assay was performed using human liver microsomes and testosterone 6β-hydroxylation as a P450 isoform-specific marker. In a total volume of 150 μL, ^14C-testosterone at a final concentration of 40 μM in a 100 mM phosphate buffer (pH 7.4) was incubated in a 96-well plate with 0.3 mg/mL of human liver microsomes in an Eppendorf thermomixer at 37° C. and 400 rpm. […] The reaction was initiated by addition of 15 μL of the NADPH-regenerating system containing the glucose-6-phosphate dehydrogenase and terminated after 7 min with a 75 μL-aliquot of methanol. After centrifugation at 465 g and 4° C. for 20 min, a 50 μL-aliquot of the supernatant was submitted to HPLC according to the method described below. The total concentration of DMSO in the assay including controls without inhibitor was 1%.
Nicardipine was run in parallel as a reference inhibitor of CYP3A4 activity at final concentrations of 0, 0.1, 0.5, 1.0, 5.0, 10, 25, and 50 μM. Stock solutions thereof were prepared in DMSO.
The chromatographic separation of testosterone and 6β-hydroxytestosterone was achieved on a Phenomenex Luna C18(2) column (5 μm, 2.0×10 mm) at RT with a flow rate of 0.6 mL/min. Mobile phases consisted of 1% aqueous formic acid (phase A) and methanol (phase B) using a gradient method with 0.9 min total run time.
The quantification of 6β-hydroxytestosterone was carried out using a quadrupole mass spectrometer equipped with an ionspray interface operating in positive ion mode. The parameters of the mass detector were set as follows: capillary voltage 5 kV, auxiliary gas 40 psi, collision gas 3 mTorr, and transfer capillary temperature 420° C.

human orexin-2 receptor = human orexin-2 receptor (Homo sapiens (Human), UniProt O43614); experiment: In vitro intracellular calcium measurements (FLIPR), antagonistic activity on orexin-2 receptor; format: cell-based; conditions: CHO cells expressing human orexin-2 receptor; FLIPR; 3 nM orexin-A agonist; 120 min antagonist incubation; geometric mean if determined several times; read-out: IC50 OX2
human orexin-2 receptor, sequence (O43614 whole entry): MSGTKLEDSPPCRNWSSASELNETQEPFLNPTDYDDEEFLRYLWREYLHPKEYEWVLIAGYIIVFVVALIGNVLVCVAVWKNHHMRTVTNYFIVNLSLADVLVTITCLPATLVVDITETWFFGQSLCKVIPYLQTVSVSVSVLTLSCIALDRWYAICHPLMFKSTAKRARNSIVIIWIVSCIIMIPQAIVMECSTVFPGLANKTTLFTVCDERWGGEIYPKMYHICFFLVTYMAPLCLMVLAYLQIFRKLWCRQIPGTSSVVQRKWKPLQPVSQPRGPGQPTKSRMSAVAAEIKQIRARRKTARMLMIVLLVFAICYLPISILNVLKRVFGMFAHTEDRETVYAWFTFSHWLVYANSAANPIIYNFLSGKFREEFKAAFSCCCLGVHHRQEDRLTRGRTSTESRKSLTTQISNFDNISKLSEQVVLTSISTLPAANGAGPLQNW
Summary of the method: as §1

Row | IC50 (human orexin-1 receptor) [nM] | IC50 (CYP3A4) [nM] | IC50 (human orexin-2 receptor) [nM] | concentration at 3 h [7] [ng/g] | SMILES | also measured
1 | 2 | 20000 | 1650 | 36 | Cc1ccc(-n2nccn2)c(C(=O)N2CCOC[C@H]2Cc2cccc(-n3cccn3)c2)c1F [Example 21, (2-Fluoro-3-methyl-6-[1,2,3]triazol-2-yl-phenyl)-[(R)-3-(3-pyrazol-1-yl-benzyl)-morpholin-4-yl]-methanone] | –
2 | 4 | 17000 | 209 | 881 | COc1cc(C(=O)N2CCOC[C@H]2Cc2cccc(-n3nccn3)c2)c(-n2nccn2)cc1C [Example 37, (5-Methoxy-4-methyl-2-[1,2,3]triazol-2-yl-phenyl)-[(R)-3-(3-[1,2,3]triazol-2-yl-benzyl)-morpholin-4-yl]-methanone] | –
3 | 4 | 39000 | 333 | 423 | Cc1ccc(-n2nccn2)c(C(=O)N2CCOC[C@H]2Cc2cccc(-n3nccn3)c2)c1F [Example 29, (2-Fluoro-3-methyl-6-[1,2,3]triazol-2-yl-phenyl)-[(R)-3-(3-[1,2,3]triazol-2-yl-benzyl)-morpholin-4-yl]-methanone] | –

Further lines, the compound ahead of its results:

Row | SMILES | IC50 (human orexin-1 receptor) [nM] | IC50 (CYP3A4) [nM] | IC50 (human orexin-2 receptor) [nM] | concentration at 3 h [7] [ng/g] | also measured
4 | Cn1c(SCC(=O)N2CCC[C@H]2C(=O)Nc2ccccc2-c2ccccc2)nc2ccccc21 [N-biphenyl-2-yl-1-{[(1-methyl-1H-benzimidazol-2-yl)sulfanyl]acetyl}-L-prolinamide] | – | – | – | – | behavioral and molecular changes induced by repeated amphetamine administration (rodents): reduced behavioral (locomotor sensitization) and molecular (transcriptional responses) changes induced by repeated amphetamine administration; nicotine-reinstatement for a conditioned reinforcer (rodents): inhibited nicotine-reinstatement for a conditioned reinforcer
5 | CNC(=O)[C@@H](c1ccccc1)N1CCc2cc(OC)c(OC)cc2[C@@H]1CCc1ccc(C(F)(F)F)cc1 [(2R)-2-{(1S)-6,7-dimethoxy-1-[2-(4-trifluoromethyl-phenyl)-ethyl]-3,4-dihydro-1H-isoquinolin-2-yl}-N-methyl-2-phenyl-acetamide] | – | – | – | – | natural activation induced by orexin A (fasted hungry rats): attenuate the natural activation induced by orexin A; learning and memory (rats [1]): intact declarative and non-declarative learning and memory; alertness (active wake and locomotion) (rat [2]): decrease alertness; time spent in REM and NREM sleep (rat [2]): dose-dependently increase the time spent in both REM and NREM sleep; antidepressant-like activity (mouse): induce antidepressant-like activity; cardiovascular responses to conditioned fear and novelty exposure (rats [3]): attenuated cardiovascular responses to conditioned fear and novelty exposure; activity in animal model of conditioned fear (rat [4]): active; pharmacological activity, nicotine self-administration (rat [5]): displayed pharmacological activity; clinical efficacy, primary insomnia (humans): showed clinical efficacy; brain levels of amyloid-beta and plaque deposition [6]: decreased brain levels of amyloid-beta (Aβ) as well as AO plaque deposition
6 | C[C@@H]1CN(C(=O)c2ccccc2-n2nccn2)[C@H](Cc2cc(-n3nccn3)ccc2F)CO1 [Example 116, [(2R,5R)-5-(2-Fluoro-5-[1,2,3]triazol-2-yl-benzyl)-2-methyl-morpholin-4-yl]-(2-[1,2,3]triazol-2-yl-phenyl)-methanone] | 21 | 21000 | 899 | – | concentration at 1 h ([7]; formulated in 10% PEG400/90% MC0.5%, sampled at 1 h): 5930 ng/g
